According to US9790215B2 (FLATLEY DISCOVERY LAB, LLC, priority 2013, dated 2017):

Target: T1, human ΔF508-CFTR (Homo sapiens, UniProt P13569, DEL508-508)
T1 construct: expressed in transfected cells
Assay: CFTR-YFP High Throughput Assay (YFP halide flux in FRT cells)
Type: cell-based
Details: FRT cells expressing human ΔF508-CFTR and YFP; forskolin stimulated
Method: Assays for Detecting and Measuring the Effect of Compounds on dF508-CFTR Channels CFRT-YFP High Throughput Assay:
The following protocol is designed to selectively screen small molecule compounds for F508del CFTR corrector activities in the HTS YFP flux assay. In this protocol, the cells are incubated with testing compounds for 24 hours, washed with PBS, stimulated with forskolin and a standard potentiator, and read on a 384-well HTS plate reader, such as the Hamamatsu FDDD-6000.
(§1) YFP fluorescence intensity is acquired at high speed before and after iodide buffer is injected to the assay cells. Iodide enters the cells via active CFTR channels in the plasma membrane, and quenches the YFP fluorescence. The rate of fluorescence quenching is proportionally related to the total CFTR activities in the cell membrane. dF508-CFTR corrector accelerates YFP quenching by increasing the number of CFTR molecules in the testing cell plasma membrane.
This method was initially developed for bench top plate readers (Galietta et al., 2001), and was adapted to the HTS format (Sui et al. Assay Drug Dev. Technol. 2010).
Fisher Rat Thyroid (FRT) cells stably expressing both human AF508-CFTR and a halide-sensitive yellow fluorescent protein (YFP—H148Q/1152L 25, 22) (Galietta et al., Am. J. Physiol Cell Physiol 281(5), C1734, 2001) were cultured on plastic surface in Coon's modified Ham's F12 medium supplemented with FBS 10%, L-glutamine 2 mM, penicillin 100 U/mL, and streptomycin 100 μg/mL. G418 (0.75-1.0 mg/mL) and zeocin (3.2 ug/mL) were used for selection of FRT cells expressing ΔF508-CFTR and YFP. For primary screening, FRT cells were plated into 384-well black wall, transparent bottom microtiter plates (Costar; Corning Inc.) at a cell density of 20,000-40,000 per well. Test compound was applied to the cells at varying concentrations ranging from […] in either a 2-fold or 3-fold dilution series. Cells were incubated in a cell culture incubator at 37° C. with 5% CO2 for 24-26 h. Assay plates were washed with DPBS media (Thermo, cat# SH30028.02) to remove unbound cells and compound. Stimulation media (25 μL) containing 20 μM Forskolin & 30 μM P3 [6-(Ethyl-phenyl-sulfonyl)-4-oxo-1,4-dihydro-quinoline-3-carboxylic acid 2-methoxy-benzylamide] in Hams F-12 coon's modified media was added to the plate wells and incubated at room temperature for 60-120 min. 25 μL of HEPES-PBS-I buffer (10 mM HEPES, 1 mM MgCl2, 3 mM KCl, 1 mM CaCl2, 150 mM NaI) was then added and fluorescence quench curves (Excitation 500 nm/Emission 540 nm; exposure 136 ms) were immediately recorded on an FDSS-6000 plate reader (Hamamatsu). Quench rates were derived from least squares fitting of the data as described by Sui et al., (2010).
The following protocol is designed to selectively screen small molecule compounds for F508del CFTR potentiator activities in the HTS YFP flux assay. In this protocol, the cells are incubated at 27 C for 24 hours with homogeneously boosted dF508-CFTR expression in the cell membrane by the low temperature, washed with PBS, stimulated with forskolin, and read on a 384-well HTS plate reader, such as the Hamamatsu FDDD-6000.
as §1, with “dF508del-CFTR potentiators accelerate” for “dF508-CFTR corrector accelerates”, “increasing” for “increasing the number of”, “activities” for “molecules”
Fisher Rat Thyroid (FRT) cells stably expressing both human ΔF508-CFTR and a halide-sensitive yellow fluorescent protein (YFP-H148Q/I152L 25, 22) (Galietta et al., Am. J. Physiol Cell Physiol 281(5), C1734, 2001) were cultured on plastic surface in Coon's modified Ham's F12 medium supplemented with FBS 10%, L-glutamine 2 mM, penicillin 100 U/mL, and streptomycin 100 μg/mL. […]

T1 sequence (P13569 with tags, fused parts or gaps DEL508-508): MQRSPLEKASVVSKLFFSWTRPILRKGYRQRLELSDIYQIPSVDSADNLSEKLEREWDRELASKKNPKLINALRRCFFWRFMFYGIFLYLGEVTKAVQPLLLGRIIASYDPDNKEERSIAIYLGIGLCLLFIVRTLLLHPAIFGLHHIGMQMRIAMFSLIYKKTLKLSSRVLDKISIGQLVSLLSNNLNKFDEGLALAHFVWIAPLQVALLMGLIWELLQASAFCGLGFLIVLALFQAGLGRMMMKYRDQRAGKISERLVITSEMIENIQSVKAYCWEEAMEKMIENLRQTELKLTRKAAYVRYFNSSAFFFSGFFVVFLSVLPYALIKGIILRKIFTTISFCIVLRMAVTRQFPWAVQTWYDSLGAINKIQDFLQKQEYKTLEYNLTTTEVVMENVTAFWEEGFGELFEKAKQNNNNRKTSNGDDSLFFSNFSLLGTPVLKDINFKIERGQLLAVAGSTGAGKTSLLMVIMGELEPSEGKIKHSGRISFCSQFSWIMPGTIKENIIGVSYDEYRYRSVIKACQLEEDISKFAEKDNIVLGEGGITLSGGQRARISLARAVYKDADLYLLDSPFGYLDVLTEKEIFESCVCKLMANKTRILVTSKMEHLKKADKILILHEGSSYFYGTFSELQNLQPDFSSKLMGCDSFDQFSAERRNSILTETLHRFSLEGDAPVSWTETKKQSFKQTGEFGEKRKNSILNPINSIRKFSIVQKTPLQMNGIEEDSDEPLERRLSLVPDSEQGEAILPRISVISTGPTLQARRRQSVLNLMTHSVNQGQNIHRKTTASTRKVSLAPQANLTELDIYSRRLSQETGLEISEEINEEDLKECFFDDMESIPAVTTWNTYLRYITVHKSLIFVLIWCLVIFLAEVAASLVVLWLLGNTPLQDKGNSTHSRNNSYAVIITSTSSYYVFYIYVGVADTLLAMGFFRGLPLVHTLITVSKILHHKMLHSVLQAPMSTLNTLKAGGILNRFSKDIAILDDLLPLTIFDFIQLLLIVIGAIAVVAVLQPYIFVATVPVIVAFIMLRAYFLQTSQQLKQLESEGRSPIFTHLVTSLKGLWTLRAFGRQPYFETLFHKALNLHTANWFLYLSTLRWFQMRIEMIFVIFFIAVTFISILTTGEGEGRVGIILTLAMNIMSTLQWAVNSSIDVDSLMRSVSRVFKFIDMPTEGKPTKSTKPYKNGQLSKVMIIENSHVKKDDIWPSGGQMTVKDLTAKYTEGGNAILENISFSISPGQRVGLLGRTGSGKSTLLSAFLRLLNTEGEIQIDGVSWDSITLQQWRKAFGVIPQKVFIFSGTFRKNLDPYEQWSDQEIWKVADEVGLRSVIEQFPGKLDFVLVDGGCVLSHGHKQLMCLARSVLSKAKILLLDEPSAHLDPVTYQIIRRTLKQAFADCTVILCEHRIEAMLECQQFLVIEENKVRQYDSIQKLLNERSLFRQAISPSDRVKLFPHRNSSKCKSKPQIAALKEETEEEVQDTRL

SMILES	EC50 [µM]
CCc1ccc(N(CC)C(=O)Cn2nc(Cc3cccnc3)c3cc(OC)ccc3c2=O)cc1 [Example 36, N-ethyl-N-(4-ethylphenyl)-2-(6-methoxy-1-oxo-4-(pyridin-3-ylmethyl)phthalazin-2(1H)-yl)acetamide]	< 10
CCc1ccc(N(CC)C(=O)Cn2nc(Cc3cccnc3)c3cccc(F)c3c2=O)cc1 [Example 37, N-ethyl-N-(4-ethylphenyl)-2-(8-fluoro-1-oxo-4-(pyridin-3-ylmethyl)phthalazin-2(1H)-yl)acetamide]	< 10
CCc1ccc(N(CC)C(=O)Cn2nc(Cc3cccnc3)c3cc(Cl)c(Cl)cc3c2=O)cc1 [Example 38, 2-(6,7-dichloro-1-oxo-4-(pyridin-3-ylmethyl)phthalazin-2(1H)-yl)-N-ethyl-N-(4-ethylphenyl)acetamide]	> 20
CCc1ccc(N(CC)C(=O)Cn2nc(Cc3cccnc3)c3ccc(Cl)cc3c2=O)cc1 [Example 39, 2-(7-chloro-1-oxo-4-(pyridin-3-ylmethyl)phthalazin-2(1H)-yl)-N-ethyl-N-(4-ethylphenyl)acetamide]	< 10
CCc1ccc(N(CC)C(=O)Cn2nc(Cc3cccnc3)c3cc(Cl)ccc3c2=O)cc1 [Example 40, 2-(6-chloro-1-oxo-4-(pyridin-3-ylmethyl)phthalazin-2(1H)-yl)-N-ethyl-N-(4-ethylphenyl)acetamide]	< 10
CCN(C(=O)Cn1nc(Cc2cccnc2)c2cc(OC)c(OC)cc2c1=O)c1ccc2c(c1)OC(F)(F)O2 [Example 44]	< 10
CCN(C(=O)Cn1nc(Cc2cccnc2)c2ccc(C)cc2c1=O)c1ccc2c(c1)OC(F)(F)O2 [Example 45, N-(2,2-difluorobenzo[d][1,3]dioxol-5-yl)-N-ethyl-2-(7-methyl-1-oxo-4-(pyridin-3-ylmethyl)phthalazin-2(1H)-yl)acetamide]	< 10
CCN(C(=O)Cn1nc(Cc2cccnc2)c2cc(C)ccc2c1=O)c1ccc2c(c1)OC(F)(F)O2 [Example 46, N-(2,2-difluorobenzo[d][1,3]dioxol-5-yl)-N-ethyl-2-(6-methyl-1-oxo-4-(pyridin-3-ylmethyl)phthalazin-2(1H)-yl)acetamide]	< 10
CCN(C(=O)Cn1nc(Cc2cccnc2)c2cccc(C)c2c1=O)c1ccc2c(c1)OC(F)(F)O2 [Example 47, N-(2,2-difluorobenzo[d][1,3]dioxol-5-yl)-N-ethyl-2-(8-methyl-1-oxo-4-(pyridin-3-ylmethyl)phthalazin-2(1H)-yl)acetamide]	< 10
CCN(C(=O)Cn1nc(Cc2cccnc2)c2ccc(C(C)(C)C)cc2c1=O)c1ccc2c(c1)OC(F)(F)O2 [Example 50, 2-(7-(tert-butyl)-1-oxo-4-(pyridin-3-ylmethyl)phthalazin-2(1H)-yl)-N-(2,2-difluorobenzo[d][1,3]dioxol-5-yl)-N-ethylacetamide]	< 10
CCN(C(=O)Cn1nc(Cc2cccnc2)c2cc(OC)ccc2c1=O)c1ccc2c(c1)OC(F)(F)O2 [Example 51, N-(2,2-difluorobenzo[d][1,3]dioxol-5-yl)-N-ethyl-2-(6-methoxy-1-oxo-4-(pyridin-3-ylmethyl)phthalazin-2(1H)-yl)acetamide]	< 10
CCN(C(=O)Cn1nc(Cc2cccnc2)c2cc(Cl)ccc2c1=O)c1ccc2c(c1)OC(F)(F)O2 [Example 53, 2-(6-chloro-1-oxo-4-(pyridin-3-ylmethyl)phthalazin-2(1H)-yl)-N-(2,2-difluorobenzo[d][1,3]dioxol-5-yl)-N-ethylacetamide]	< 10
CCN(C(=O)Cn1nc(Cc2cccnc2)c2ccc(Cl)cc2c1=O)c1ccc2c(c1)OC(F)(F)O2 [Example 54, 2-(7-chloro-1-oxo-4-(pyridin-3-ylmethyl)phthalazin-2(1H)-yl)-N-(2,2-difluorobenzo[d][1,3]dioxol-5-yl)-N-ethylacetamide]	< 10
CCOc1cccc2c(Cc3cccnc3)nn(CC(=O)N(CC)c3ccc4c(c3)OC(F)(F)O4)c(=O)c12 [Example 57, N-(2,2-difluorobenzo[d][1,3]dioxol-5-yl)-N-ethyl-2-(8-ethoxy-1-oxo-4-(pyridin-3-ylmethyl)phthalazin-2(1H)-yl)acetamide]	< 10
CCOc1cccc2c(=O)n(CC(=O)N(CC)c3ccc4c(c3)OC(F)(F)O4)nc(Cc3cccnc3)c12 [Example 58, N-(2,2-difluorobenzo[d][1,3]dioxol-5-yl)-N-ethyl-2-(5-ethoxy-1-oxo-4-(pyridin-3-ylmethyl)phthalazin-2(1H)-yl)acetamide]	10 to 20

Further lines, results first:

EC50 [µM]	SMILES
> 20	CCc1ccc(N(CC)C(=O)Cn2nc(Cc3cccnc3)c3ccncc3c2=O)cc1 [Example 41, N-ethyl-N-(4-ethylphenyl)-2-(4-oxo-1-(pyridin-3-ylmethyl)pyrido[3,4-d]pyridazin-3(4H)-yl)acetamide]
> 20	CCc1ccc(N(CC)C(=O)Cn2nc(Cc3cccnc3)c3cnccc3c2=O)cc1 [Example 42, N-ethyl-N-(4-ethylphenyl)-2-(1-oxo-4-(pyridin-3-ylmethyl)pyrido[3,4-d]pyridazin-2(1H)-yl)acetamide]
10 to 20	CCc1ccc(N(CC)C(=O)Cn2nc(Cc3cccnc3)c3ncccc3c2=O)cc1 [Example 43, N-ethyl-N-(4-ethylphenyl)-2-(5-oxo-8-(pyridin-3-ylmethyl)pyrido[2,3-d]pyridazin-6(5H)-yl)acetamide]
< 10	CCN(C(=O)Cn1nc(Cc2cccnc2)c2c(C)cccc2c1=O)c1ccc2c(c1)OC(F)(F)O2 [Example 48, N-(2,2-difluorobenzo[d][1,3]dioxol-5-yl)-N-ethyl-2-(5-methyl-1-oxo-4-(pyridin-3-ylmethyl)phthalazin-2(1H)-yl)acetamide]
< 10	CCN(C(=O)Cn1nc(Cc2cccnc2)c2cc(C(C)(C)C)ccc2c1=O)c1ccc2c(c1)OC(F)(F)O2 [Example 49, 2-(6-(tert-butyl)-1-oxo-4-(pyridin-3-ylmethyl)phthalazin-2(1H)-yl)-N-(2,2-difluorobenzo[d][1,3]dioxol-5-yl)-N-ethylacetamide]
< 10	CCN(C(=O)Cn1nc(Cc2cccnc2)c2ccc(OC)cc2c1=O)c1ccc2c(c1)OC(F)(F)O2 [Example 52, N-(2,2-difluorobenzo[d][1,3]dioxol-5-yl)-N-ethyl-2-(7-methoxy-1-oxo-4-(pyridin-3-ylmethyl)phthalazin-2(1H)-yl)acetamide]
< 10	CCN(C(=O)Cn1nc(Cc2cccnc2)c2cccc(OC)c2c1=O)c1ccc2c(c1)OC(F)(F)O2 [Example 55, N-(2,2-difluorobenzo[d][1,3]dioxol-5-yl)-N-ethyl-2-(8-methoxy-1-oxo-4-(pyridin-3-ylmethyl)phthalazin-2(1H)-yl)acetamide]
< 10	CCN(C(=O)Cn1nc(Cc2cccnc2)c2c(OC)cccc2c1=O)c1ccc2c(c1)OC(F)(F)O2 [Example 56, N-(2,2-difluorobenzo[d][1,3]dioxol-5-yl)-N-ethyl-2-(5-methoxy-1-oxo-4-(pyridin-3-ylmethyl)phthalazin-2(1H)-yl)acetamide]
< 10	CCN(C(=O)Cn1nc(Cc2cccnc2)c2cccc(OC3CCCCC3)c2c1=O)c1ccc2c(c1)OC(F)(F)O2 [Example 59, 2-(8-(cyclohexyloxy)-1-oxo-4-(pyridin-3-ylmethyl)phthalazin-2(1H)-yl)-N-(2,2-difluorobenzo[d][1,3]dioxol-5-yl)-N-ethylacetamide]
